Results as given in patent US20030219491A1, “Compositions for inhibiting tumor growth and methods thereof” (priority 2002, published 2003).

Assays:
[1] = target: polyhemoglobin-tyrosinase complex (bovine hemoglobin crosslinked with mushroom tyrosinase) (Bos taurus, UniProt P01966+P02070); settings: crosslink time 24 h; versus pure bovine hemoglobin in free form
[2] = test system: tyrosinase from mushroom, encapsulated (1020 U/3 ml); experiment: Apparent Vmax and apparent Km of encapsulated tyrosinase; format: biochemical; settings: substrate tyrosine
From the text: (§1) L-tyrosine (98% TLC), hemoglobin from bovine (lyophilized powder), hemoglobin assay kit, tyrosinase from mushroom (3400 U/mg manufacturer's stated activity) were purchased from Sigma-Aldrich (Oakville, Canada). Collodion was obtained from Fisher Scientific (Nepean, Canada). Glutaraldehyde (25%) was obtained from Polyscienes (Warrington, Pa.). Purified bovine hemoglobin was purchased from Biopure Corporation (Boston, Mass.). All other reagents were of analytical grade.
One gram hemoglobin and 200 mg […] was dissolved in 10 ml double distilled deionized water. Stir with a metal rod until everything is dissolved. Gravity filter the solution through a Waterman #42 filter into a Erlenmeyer flask. Take 2.5 ml of this 10 g/dl hemoglobin solution and was encapsulated within spherical, ultrathin, cellulose nitrate membrane. Without tyrosinase loaded microcapsules were administrated orally to control group. For tyrosinase loaded microencapsules, […] of 3400 U/mg tyrosinase was dissolved in 2.5 ml 10% hemoglobin solution, then followed the methods described above to immobilize tyrosinase in collodion membrane microcapsules. Microcapsules prepared as a 50% suspension for later feeding. […]
Next, the apparent Vmax and apparent Km value for encapsulated tyrosinase (1020 U/3 ml) were studied. The leakage of encapsulated tyrosinase is also measured.

[3] = test system: tyrosinase from mushroom, free (1020 U/3 ml); experiment: Vmax and Km of free tyrosinase; format: biochemical; settings: substrate tyrosine
From the text: as §1
This is to characterize the enzyme kinetics of the preparation and comparing this encapsulated tyrosinse preparation to free tyrosinase.

polyhemoglobin-tyrosinase complex (bovine hemoglobin crosslinked with mushroom tyrosinase), sequence (P01966 whole entry): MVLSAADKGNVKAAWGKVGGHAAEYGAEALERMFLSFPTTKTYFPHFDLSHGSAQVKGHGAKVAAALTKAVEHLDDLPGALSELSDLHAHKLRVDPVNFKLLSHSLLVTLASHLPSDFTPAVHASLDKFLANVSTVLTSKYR
polyhemoglobin-tyrosinase complex (bovine hemoglobin crosslinked with mushroom tyrosinase), sequence (P02070 whole entry): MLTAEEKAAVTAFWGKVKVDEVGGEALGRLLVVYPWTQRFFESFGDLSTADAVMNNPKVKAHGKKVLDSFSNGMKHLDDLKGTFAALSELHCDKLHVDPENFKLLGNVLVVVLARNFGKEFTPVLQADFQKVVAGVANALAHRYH

Structure (SMILES)	P50 (oxygen dissociation), difference from free hemoglobin [1]	Apparent Vmax [2] [mg/dl · min]	Km [2] [µM]	Vmax [3] [mg/dl · min]
O=O [oxygen]	no significant difference			
N[C@@H](Cc1ccc(O)cc1)C(=O)O [tyrosine, L-tyrosine]		49.02	465	114.94
